From US10757943B2, “Thidiazuron mixtures and uses thereof” (Valent BioSciences LLC, priority 2017, dated 2020)

Tested on: Concord grape vines
Test: Bud break and shoot growth of potted dormant Concord grape vines in the greenhouse (Example 1)
Format: in vivo
Conditions: for % bud break (vines with at least one bud break): hydrogen cyanamide 10,000 ppm, 17-0-0 197,100 ppm, 15-0-0 239,060 ppm, ACC 1,000 ppm
Text: An aqueous 50% hydrogen cyanamide solution (Sigma-Aldrich, St. Louis, Mo. USA) was used as the source of hydrogen cyanamide. The commercial product, Dormex® contains 50% hydrogen cyanamide (w/v) in water.
Erger® was used as the source of 15-0-0 fertilizer. (Erger is a registered trademark of Valagro S.P.A., Italy and is available from Helena Chemical Company, Collierville, Tenn., USA). Erger® contains 15% total nitrogen as 3.1% ammoniacal nitrogen, 5.8% nitrate nitrogen and 6.1% urea nitrogen and 3.3% calcium derived from ammonium nitrate, calcium nitrate and urea. As used herein, the term “15-0-0 fertilizer” refers to the Erger® formulation above and all formulations described in International PCT application publication WO/2001/037653A2 by Valagro S.P.A., Italy, which is incorporated, herein, in its entirety.
CAN-17 was used as the source of 17-0-0 fertilizer. CAN-17 contains 17% total nitrogen as 4.6% ammonium nitrogen and […] nitrate nitrogen and 1.3% urea nitrogen and 8.8% calcium derived from ammonium nitrate and calcium nitrate. CAN-17 is available from J.R. Simplot Company (Boise, Id., USA).
To assess the ability of mixtures of the invention to promote and synchronize bud break these mixtures were applied to Concord grape vines and examined for bud break (initiation of growth) and subsequent shoot development. Specifically, 1 year old dormant bare rooted Concord grape vines were planted in pots containing Pro-Mix® BX potting soil (Pro-Mix is a registered trademark of and available from Premier Horticulture Ltd.) and pruned to 5 nodes on a single shoot. Aqueous solutions of thidiazuron, hydrogen cyanamide, 15-0-0 fertilizer, 17-0-0 fertilizer and 1-aminocyclopropane-1-carboxylic acid (“ACC”), and mixtures thereof were each applied individually or sequentially or co-applied to the first-year wood of separate Concord grape vines. Plants were grown in the greenhouse for 49 days and evaluated for percent of vines showing bud break, or relief from dormancy, periodically between 7 days and the conclusion of the experiment. […] At 49 days after treatment (DAT), the plants were sacrificed and measured for total number of flower clusters, total new shoot length, longest new shoot, combined new shoot fresh weight and combined new shoot dry weight. New shoot growth is the growth arising from the dormant buds not including the woody growth that was planted and gave rise to the new growth.
Synergy is calculated by the Abbott method: %Cexp=A+B−(AB/100), where % Cexp is the expected efficacy and in which A and B are the speed of bud break or shoot length or shoot weight given by the single active ingredients. If the ratio between the experimentally observed efficacy of the mixture Cobs and the expected efficacy of the mixture is greater than 1, synergistic interactions are present in the mixture” (Gisi, Synergistic Interaction of Fungicides in Mixtures, The American Phytopathological Society, 86:11, 1273-1279,1996).

[1] = 49 days post treatment, thidiazuron ppm as in label, other concentrations as in Table 1

Question: How did the “% bud break (vines with at least one bud break)” value (7 DAT, thidiazuron 300 ppm unless label states other) turn out when `NC1(C(=O)O)CC1` [ACC, 1-aminocyclopropane-1-carboxylic acid] was run?
Answer: 0%

Question: And the “% bud break (vines with at least one bud break)” value (10 DAT, thidiazuron 300 ppm unless label states other)?
Answer: 11.1%

Question: What about the “% bud break (vines with at least one bud break)” value (13 DAT, thidiazuron 300 ppm unless label states other) of the same compound?
Answer: 11.1%

Question: What about the “% bud break (vines with at least one bud break)” value (15 DAT, thidiazuron 300 ppm unless label states other) of the same compound?
Answer: 11.1%

Question: And the “% bud break (vines with at least one bud break)” value (17 DAT, thidiazuron 300 ppm unless label states other)?
Answer: 11.1%

Question: And the “% bud break (vines with at least one bud break)” value (20 DAT, thidiazuron 300 ppm unless label states other)?
Answer: 11.1%

Question: What about the “% bud break (vines with at least one bud break)” value (22 DAT, thidiazuron 300 ppm unless label states other) of the same compound?
Answer: 22.2%

Question: What about the “% bud break (vines with at least one bud break)” value (24 DAT, thidiazuron 300 ppm unless label states other) of the same compound?
Answer: 22.2%

Question: What about the “% bud break (vines with at least one bud break)” value (27 DAT, thidiazuron 300 ppm unless label states other) of the same compound?
Answer: 22.2%

Question: And the “% bud break (vines with at least one bud break)” value (29 DAT, thidiazuron 300 ppm unless label states other)?
Answer: 33.3%

Question: And the “% bud break (vines with at least one bud break)” value (31 DAT, thidiazuron 300 ppm unless label states other)?
Answer: 33.3%

Question: And the “% bud break (vines with at least one bud break)” value (34 DAT, thidiazuron 300 ppm unless label states other)?
Answer: 55.6%

Question: And the “% bud break (vines with at least one bud break)” value (36 DAT, thidiazuron 300 ppm unless label states other)?
Answer: 66.7%

Question: What about the “% bud break (vines with at least one bud break)” value (38 DAT, thidiazuron 300 ppm unless label states other) of the same compound?
Answer: 77.8%

Question: What about the “% bud break (vines with at least one bud break)” value (41 DAT, thidiazuron 300 ppm unless label states other) of the same compound?
Answer: 77.8%

Question: And the “% bud break (vines with at least one bud break)” value (43 DAT, thidiazuron 300 ppm unless label states other)?
Answer: 77.8%

Question: And the “% bud break (vines with at least one bud break)” value (49 DAT, thidiazuron 300 ppm unless label states other)?
Answer: 77.8%

Question: And the “Combined Shoot Dry Weight” value [1]?
Answer: 1.2 g

Question: What about the “Combined Shoot Fresh Weight” value [1] of the same compound?
Answer: 7.1 g

Question: What about the “Longest Shoot Length” value [1] of the same compound?
Answer: 27.9 cm

Question: What about the “Total # of Flower Clusters” value [1] of the same compound?
Answer: 0.1

Question: What about the “Total Shoot Length” value [1] of the same compound?
Answer: 28.9 cm

Question: And the “Dry Weight (g)/25% Bud Break to Harvest (d)” value (combined shoot dry weight at 49 DAT normalised by days from 25% bud break to harvest)?
Answer: 0.06 g/day

Question: And the “Dry Weight (g)/50% Bud Break to Harvest (d)” value (combined shoot dry weight at 49 DAT normalised by days from 50% bud break to harvest)?
Answer: 0.08 g/day

Question: What about the “Fresh Weight (g)/50% Bud Break to Harvest (d)” value (combined shoot fresh weight at 49 DAT normalised by days from 50% bud break to harvest) of the same compound?
Answer: 0.47 g/day

Question: What about the “50% Bud Break to Harvest” value (harvest at day 49, thidiazuron 300 ppm unless label states other, other concentrations as in Table 1) of the same compound?
Answer: 15 days

Question: What about the “Initial to 50% Bud Break” value (synchrony of bud break, thidiazuron 300 ppm unless label states other, other concentrations as in Table 1) of the same compound?
Answer: 25 days

Question: What about the “25% Bud Break (DAT)” value (time to 25% bud break, thidiazuron 300 ppm unless label states other, other concentrations as in Table 1) of the same compound?
Answer: 28 DAT

Question: What about the “50% Bud Break (DAT)” value (time to 50% bud break, thidiazuron 300 ppm unless label states other, other concentrations as in Table 1) of the same compound?
Answer: 34 DAT
